The record followed here is publication PMC11530130, “Peripherally restricted PICK1 inhibitor mPD5 ameliorates pain behaviors in murine inflammatory and neuropathic pain models” (JCI Insight, 2024).

The test system of experiment [1] is mice, spared nerve injury (SNI) model. Description: SNI model, von Frey, single s.c. dose, female mice. In kind it is in vivo, mouse. To be noted: s.c. 2, 10, 50 μmol/kg (all tested doses), 1 hour after injection. As for the experimental part: solution (0.05 mg/kg) injected s.c. 30 min before surgery (10 μL/g). For surgery, mice were anaesthetised with ketamine (100 mg/kg, i.p.) and xylazine (10 mg/kg, i.p.) (volume 10 µL/g) with 100 μL of 1% xylocaine solution infiltrated at the site of the incision. The distal trifurcation of the sciatic nerve was identified, and the tibial and common peroneal branches were ligated with polypropylene nonabsorbable 6-0 sutures (Ethicon) and 1 mm was cut out, leaving the sural branch intact. The wound was closed with sutures, and the animals were allowed to recover and returned to their cages. […]
Wounds were closed with surgical glue or medical clips and animals were monitored daily for signs of stress or discomfort, but in all cases recovered uneventfully. […]
Unless otherwise specified, von Frey occurred as described in the following. […] Mechanical paw withdrawal threshold (PWT) was determined by von Frey measurements of both hind paws. […]
Mice were placed in PVC plastic boxes (11.5 cm x 14 cm) on a wire mesh and allowed minimum 20 min habituation prior of experiment initiation. Each von Frey hair was applied five times with adequate resting periods between each application and number of withdrawals recorded. The withdrawal threshold was determined as the von Frey filament eliciting at least three positive trials out of the five applications in two consecutive filaments. […]

For experiment [2], the system named is mice, CFA model of inflammatory pain. Description: Single exposure place preference (sePP), CFA mice. Also noted: time spent in the paired compartment, individual mice: reference not given here. In kind it is in vivo, mouse. As for the experimental part:
On days 6-8, the escape hole was moved
90 degrees, and all mice went through the second bout of training. On day nine, a second probe trial was performed testing the reversal learning of the mice.
Cancer induced bone pain was induced as described in the “Induction of cancer induced bone pain (CIBP model)"-section. For the assessment of limb use, all mice from one cage were placed in an empty transparent plastic box and left for ten min to habituate. One mouse at a time was moved by tunnel handling or scooping to an identical plastic box for the limb use test. […]
gait, 3 Insignificant limping, 2 Significant limping and shift in bodyweight towards the healthy limb 1 Significant limping and partial lack of use of ipsilateral leg 0 Total lack of use of ipsilateral leg. A score of 0 was used as a humane endpoint. Urine and faeces were cleaned from the plastic box with a dry paper towel between mice from the same cage, and a new plastic box was used for mice from different cages. The limb use test was video filmed for later […]
Assessment of static weight bearing. […]
Initial perception of the drugs was measured by single exposure place preference experiments performed in an elongated three compartment apparatus (67.5 cm x 24 cm) with a biased design of different floor textures and wall patterns and a neutral zone in the middle. […]

SMILES strings stand for the structures. Several values for one entry are separate records, joined by “and”; a condition that tells them apart may be missing. Equal entries are not always repeated.

Take `CCCCCCCCCCCCCC(=O)N(CCOCCOCCC(=O)N[C@@H](Cc1c[nH]cn1)C(=O)N[C@@H](Cc1c[nH]c2ccccc12)C(=O)N[C@@H](CC(C)C)C(=O)N[C@@H](CCCCN)C(=O)N[C@H](C(=O)O)C(C)C)CCOCCOCCC(=O)N[C@@H](Cc1c[nH]cn1)C(=O)N[C@@H](Cc1c[nH]c2ccccc12)C(=O)N[C@@H](CC(C)C)C(=O)N[C@@H](CCCCN)C(=O)N[C@H](C(=O)O)C(C)C` [mPD5, myristoyl-NPEG4-(HWLKV)2]: the “effect on mechanical hypersensitivity (PWT)” value in experiment [1] is given as “significantly reduced mechanical hypersensitivity”. Further, the “time in the paired compartment compared with the PBS animals (sePP)” value in experiment [2] (CFA animals, s.c. 30 μmol/kg in the gray (paired) compartment) was “significantly more time in the paired compartment”. For the same compound, in experiment [2] (CFA mice conditioned with 30 μmol/kg), the “time spent in the paired compartment, individual mice” value was 1.043 and 0.9432 and 1.1179 and 0.8953 and 1.389 and 1.4664 and 0.991 and 1.199 and 1.802 and 0.8487 and 1.092 and 1.425.
